Measurements published in ChEMBL document CHEMBL3885881, “DrugMatrix”.

Organism: Rattus norvegicus
Assay: DrugMatrix - Regimen: Daily Repeat
Type: toxicity, organism-based, Sprague-Dawley
Set-up: regimen Daily Repeat, gender Male, age 6-8 weeks
Details: in vivo, po, route oral GAVAGE, […]; for ABSOLUTE BASOPHIL / ABSOLUTE EOSINOPHIL / ABSOLUTE LYMPHOCYTE / ABSOLUTE MONOCYTE / ABSOLUTE SEGMENTED NEUTROPHIL / BASOPHIL / EOSINOPHIL / ERYTHROCYTE COUNT / HEMATOCRIT / HEMOGLOBIN / LEUKOCYTE COUNT / LYMPHOCYTE / MEAN CORPUSCULAR HEMOGLOBIN / MEAN CORPUSCULAR HEMOGLOBIN CONCENTRATION / MEAN CORPUSCULAR VOLUME / MONOCYTE / NEUTROPHIL / NUCLEATED RED BLOOD CELLS / PLATELET COUNT: tissue Blood; for ALANINE AMINOTRANSFERASE / ALBUMIN / ALKALINE PHOSPHATASE / ASPARTATE AMINOTRANSFERASE / BLOOD UREA NITROGEN / CARBON DIOXIDE / CHLORIDE / CHOLESTEROL / CREATINE PHOSPHOKINASE / CREATININE / GLUCOSE / LACTATE DEHYDROGENASE / LIPASE / PHOSPHORUS / POTASSIUM / SODIUM / TOTAL BILIRUBIN / TOTAL PROTEIN / URIC ACID: tissue Plasma
[1] = 40 mg/kg, 72 h, dose level Low, time 3 day
[2] = 40 mg/kg, 120 h, dose level Low, time 5 day
[3] = 444 mg/kg, 72 h, dose level High, time 3 day
[4] = 444 mg/kg, 120 h, dose level High, time 5 day

SMILES: COC(=O)c1ccccc1O [METHYL SALICYLATE]
- ABSOLUTE BASOPHIL [1]: 0 CELLS/uL
- ABSOLUTE EOSINOPHIL [1]: 96.67 CELLS/uL
- ABSOLUTE LYMPHOCYTE [1]: 12979.67 CELLS/uL
- ABSOLUTE MONOCYTE [1]: 290.67 CELLS/uL
- ABSOLUTE SEGMENTED NEUTROPHIL [1]: 1366.33 CELLS/uL
- BASOPHIL [1]: 0%
- EOSINOPHIL [1]: 0.67%
- ERYTHROCYTE COUNT [1]: 5.47 x10E6/uL
- HEMATOCRIT [1]: 34.27%
- HEMOGLOBIN [1]: 13.3 G/DL
- LEUKOCYTE COUNT [1]: 14.73 x10E3/uL
- LYMPHOCYTE [1]: 88%
- MEAN CORPUSCULAR HEMOGLOBIN [1]: 24.33 pg
- MEAN CORPUSCULAR HEMOGLOBIN CONCENTRATION [1]: 38.83 G/DL
- MEAN CORPUSCULAR VOLUME [1]: 62.67 fL
- MONOCYTE [1]: 2%
- NEUTROPHIL [1]: 9.33%
- NUCLEATED RED BLOOD CELLS [1]: 0 /100WBC
- PLATELET COUNT [1]: 1233.67 x10E3/uL
- ALANINE AMINOTRANSFERASE [1]: 69.33 u/L
- ALBUMIN [1]: 3.93 G/DL
- ALKALINE PHOSPHATASE [1]: 411 u/L
- ASPARTATE AMINOTRANSFERASE [1]: 90 u/L
- BLOOD UREA NITROGEN [1]: 10.67 mg/dL
- CARBON DIOXIDE [1]: 25 mmol/L
- CHLORIDE [1]: 101 MEQ/L
- CHOLESTEROL [1]: 68 mg/dL
- CREATINE PHOSPHOKINASE [1]: 276 u/L
- CREATININE [1]: 0.17 mg/dL
- GLUCOSE [1]: 149.67 mg/dL
- LACTATE DEHYDROGENASE [1]: 146.67 u/L
- LIPASE [1]: 12 u/L
- PHOSPHORUS [1]: 11.03 mg/dL
- POTASSIUM [1]: 6.55 MEQ/L
- SODIUM [1]: 142.03 MEQ/L
- TOTAL BILIRUBIN [1]: 0.2 mg/dL
- TOTAL PROTEIN [1]: 5.6 G/DL
- URIC ACID [1]: 1.37 mg/dL
- ABSOLUTE BASOPHIL [2]: 0 CELLS/uL
- ABSOLUTE EOSINOPHIL [2]: 46 CELLS/uL
- ABSOLUTE LYMPHOCYTE [2]: 12546.67 CELLS/uL
- ABSOLUTE MONOCYTE [2]: 258.67 CELLS/uL
- ABSOLUTE SEGMENTED NEUTROPHIL [2]: 1848.67 CELLS/uL
- BASOPHIL [2]: 0%
- EOSINOPHIL [2]: 0.33%
- ERYTHROCYTE COUNT [2]: 5.18 x10E6/uL
- HEMATOCRIT [2]: 34.3%
- HEMOGLOBIN [2]: 13.77 G/DL
- LEUKOCYTE COUNT [2]: 14.7 x10E3/uL
- LYMPHOCYTE [2]: 85.67%
- MEAN CORPUSCULAR HEMOGLOBIN [2]: 26.7 pg
- MEAN CORPUSCULAR HEMOGLOBIN CONCENTRATION [2]: 40.13 G/DL
- MEAN CORPUSCULAR VOLUME [2]: 66.53 fL
- MONOCYTE [2]: 1.67%
- NEUTROPHIL [2]: 12.33%
- NUCLEATED RED BLOOD CELLS [2]: 0 /100WBC
- PLATELET COUNT [2]: 1368.67 x10E3/uL
- ALANINE AMINOTRANSFERASE [2]: 59 u/L
- ALBUMIN [2]: 4.17 G/DL
- ALKALINE PHOSPHATASE [2]: 468.33 u/L
- ASPARTATE AMINOTRANSFERASE [2]: 97.67 u/L
- BLOOD UREA NITROGEN [2]: 11 mg/dL
- CARBON DIOXIDE [2]: 34.67 mmol/L
- CHLORIDE [2]: 100.67 MEQ/L
- CHOLESTEROL [2]: 60.33 mg/dL
- CREATINE PHOSPHOKINASE [2]: 364.67 u/L
- CREATININE [2]: 0.16 mg/dL
- GLUCOSE [2]: 144 mg/dL
- LACTATE DEHYDROGENASE [2]: 490.67 u/L
- LIPASE [2]: 11 u/L
- PHOSPHORUS [2]: 10.47 mg/dL
- POTASSIUM [2]: 6.4 MEQ/L
- SODIUM [2]: 143.33 MEQ/L
- TOTAL BILIRUBIN [2]: 0.2 mg/dL
- TOTAL PROTEIN [2]: 5.73 G/DL
- URIC ACID [2]: 1.43 mg/dL
- ABSOLUTE BASOPHIL [3]: 0 CELLS/uL
- ABSOLUTE EOSINOPHIL [3]: 0 CELLS/uL
- ABSOLUTE LYMPHOCYTE [3]: 15083 CELLS/uL
- ABSOLUTE MONOCYTE [3]: 294 CELLS/uL
- ABSOLUTE SEGMENTED NEUTROPHIL [3]: 1723 CELLS/uL
- BASOPHIL [3]: 0%
- EOSINOPHIL [3]: 0%
- ERYTHROCYTE COUNT [3]: 6.27 x10E6/uL
- HEMATOCRIT [3]: 39.33%
- HEMOGLOBIN [3]: 15.27 G/DL
- LEUKOCYTE COUNT [3]: 17.1 x10E3/uL
- LYMPHOCYTE [3]: 88.33%
- MEAN CORPUSCULAR HEMOGLOBIN [3]: 24.37 pg
- MEAN CORPUSCULAR HEMOGLOBIN CONCENTRATION [3]: 38.83 G/DL
- MEAN CORPUSCULAR VOLUME [3]: 62.8 fL
- MONOCYTE [3]: 1.67%
- NEUTROPHIL [3]: 10%
- NUCLEATED RED BLOOD CELLS [3]: 0 /100WBC
- PLATELET COUNT [3]: 1017 x10E3/uL
- ALANINE AMINOTRANSFERASE [3]: 109 u/L
- ALBUMIN [3]: 4.4 G/DL
- ALKALINE PHOSPHATASE [3]: 443.33 u/L
- ASPARTATE AMINOTRANSFERASE [3]: 121 u/L
- BLOOD UREA NITROGEN [3]: 11.33 mg/dL
- CARBON DIOXIDE [3]: 27.67 mmol/L
- CHLORIDE [3]: 99.33 MEQ/L
- CHOLESTEROL [3]: 62.33 mg/dL
- CREATINE PHOSPHOKINASE [3]: 782 u/L
- CREATININE [3]: 0.19 mg/dL
- GLUCOSE [3]: 148.33 mg/dL
- LACTATE DEHYDROGENASE [3]: 151.33 u/L
- LIPASE [3]: 11.67 u/L
- PHOSPHORUS [3]: 13.93 mg/dL
- POTASSIUM [3]: 5.57 MEQ/L
- SODIUM [3]: 143.77 MEQ/L
- TOTAL BILIRUBIN [3]: 0.2 mg/dL
- TOTAL PROTEIN [3]: 5.73 G/DL
- URIC ACID [3]: 1 mg/dL
- ABSOLUTE BASOPHIL [4]: 0 CELLS/uL
- ABSOLUTE EOSINOPHIL [4]: 54.67 CELLS/uL
- ABSOLUTE LYMPHOCYTE [4]: 13302.33 CELLS/uL
- ABSOLUTE MONOCYTE [4]: 273 CELLS/uL
- ABSOLUTE SEGMENTED NEUTROPHIL [4]: 1603.33 CELLS/uL
- BASOPHIL [4]: 0%
- EOSINOPHIL [4]: 0.33%
- ERYTHROCYTE COUNT [4]: 6.16 x10E6/uL
- HEMATOCRIT [4]: 38.17%
- HEMOGLOBIN [4]: 14.63 G/DL
- LEUKOCYTE COUNT [4]: 15.23 x10E3/uL
- LYMPHOCYTE [4]: 87.67%
- MEAN CORPUSCULAR HEMOGLOBIN [4]: 23.73 pg
- MEAN CORPUSCULAR HEMOGLOBIN CONCENTRATION [4]: 38.4 G/DL
- MEAN CORPUSCULAR VOLUME [4]: 61.93 fL
- MONOCYTE [4]: 2%
- NEUTROPHIL [4]: 10%
- NUCLEATED RED BLOOD CELLS [4]: 0.33 /100WBC
- PLATELET COUNT [4]: 914.67 x10E3/uL
- ALANINE AMINOTRANSFERASE [4]: 125.67 u/L
- ALBUMIN [4]: 4.53 G/DL
- ALKALINE PHOSPHATASE [4]: 515 u/L
- ASPARTATE AMINOTRANSFERASE [4]: 127.67 u/L
- BLOOD UREA NITROGEN [4]: 18.67 mg/dL
- CARBON DIOXIDE [4]: 29 mmol/L
- CHLORIDE [4]: 103 MEQ/L
- CHOLESTEROL [4]: 65.33 mg/dL
- CREATINE PHOSPHOKINASE [4]: 548 u/L
- CREATININE [4]: 0.23 mg/dL
- GLUCOSE [4]: 140.67 mg/dL
- LACTATE DEHYDROGENASE [4]: 324.33 u/L
- LIPASE [4]: 11 u/L
- PHOSPHORUS [4]: 13.1 mg/dL
- POTASSIUM [4]: 5.71 MEQ/L
- SODIUM [4]: 146.3 MEQ/L
- TOTAL BILIRUBIN [4]: 0.27 mg/dL
- TOTAL PROTEIN [4]: 5.97 G/DL
- URIC ACID [4]: 0.9 mg/dL
